Reference: patent publication US8168596B2, “Use of cycloartane compounds for treating arthritis” (NuLiv Holding Inc., priority 2008, dated 2012)

Key:
[1] = system: MMP-2; experiment: Zymography of MMP-2 from pre-treated SW1353 cells; format: cell-based, human; conditions: 24 h
Protocol: (§1) At the beginning of the experiment, the cells were pre-treated with 100 ng/mL PMA or 10 ng/mL IL-1β for 24 hours. The cells were then treated with 0.1 μM Dexamethasone, various astragaloside compounds (0.1 μM) or extracts of Astragalus membranaceous (1 μg/mL) at indicated dosages for another 24 hours. For control sample, 0.1% DMSO was used as a negative control for these experiments. The conditioned culture mediums were then centrifuged, 2-fold concentrated and collected for assay of collagens or MMPs secreted into the culture medium.
(§2) The proteolytic activities of MMPs from SW1353 cells were measured essentially as described previously (Circ Res, 1999; 85:906-911). The cells were lysed in lysis buffer (1% Triton X-100, 50 mM Tris-Cl, pH 7.4, 180 mM NaCl, 1 mM EDTA). The samples were measured for their protein concentration using the bicinchoninic acid (BCA) protein assay kit as described. Samples of concentrated conditioned medium and cell lysates were mixed with non-reducing electrophoresis loading buffer and subjected to electrophoresis under non-reducing conditions. The electrophoresis was carried out on a 10% SDS-PAGE co-polymerized with 2 mg/mL gelatin or casein (Sigma, St. Louis, Mo. USA). For zymographic analysis of pro-MMP-2 and activated MMP-2, the total 20 μg of culture medium were used for electrophoresis. Following electrophoresis, renaturation of the proteins was achieved by incubating the gels twice in 25 g/L Triton X-100 at room temperature for 10 min. Subsequently the gels were incubated in 50 mM Tris-HCl, pH 7.5 containing 0.2 M NaCl, 0.02% Brij35 and 10 mM CaCl2 at 37° C. for 18 hours. After the gels were stained with Coomassie Brilliant Blue R-250 and destained, zones of proteolytic activities became visible as transparent bands in the stained gel. In order to obtain higher sensitivity, the gels were further destained in a solution of 1% Triton X-100 (1 to 2 hours). This procedure increased the signal-to-noise ratio, allowing the visualization of faint gelatinase bands at 92 kDa, 125 kDa and greater than 200 kDa. Zymograms were read using a Molecular Dynamics (Sunnyvale, Calif., USA) computing laser densitometer with Image Quant software.

[2] = system: MMP-13; experiment: Western blot of MMP-13 in PMA- or IL-1β-pre-treated SW1353 cells (Example 6); format: cell-based, human; conditions: 0.1 μM, 48 h
Protocol: (§3) The cells were then plated on 6-cm dishes at a density of 1×10^6 cells/dish for 24 hours prior to any treatment. At the beginning of the experiment, the cells were pre-treated with 100 ng/mL PMA or 10 ng/mL IL-1β for 24 hours. The cells were then treated 0.1 μM Dexamethasone with, various astragaloside compounds (0.1 μM) or extracts of Astragalus membranaceous (1 μg/mL) at indicated dosages for another 48 hours. For control sample, 0.1% DMSO was used as a negative control for these experiments. The conditioned culture mediums were then centrifuged, 2-fold concentrated and collected for assay of collagens or MMPs secreted into the culture medium.
Western blotting analysis was carried out on both cultured medium and cell lysates, as follows. The cells were washed and lysed in 0.2 mL of lysis buffer (1% NP-40, 50 mM Tris-HCl, pH 7.4, 180 mM NaCl, 1 mM EDTA, 1 mM PMSF, 1 mM NaF, 10 mM Na3VO4) for 30 min at 4° C. After centrifuging at 17500 g for 15 min, the supernatants of cell lysate were also collected. Protein concentration of the samples were measured using the bicinchoninic acid (BCA) protein assay kit according to the manufacturer's protocol (Pierce, Rockford, Ill., USA). Equal amount of protein samples of concentrated conditioned medium (100 μg) or cell lysate supernatants (50 μg) were mixed with an appropriate volume of 4×SDS sampling buffer and separated by 8% SDS-PAGE gel. The protein bands separated in the SDS-PAGE gel were blotted onto a polyvinylidene fluoride (PVDF) membrane. The blotted PVDF membrane was washed twice and blocked in freshly prepared Tris-buffered saline (TBS) containing 0.1% Tween-20 and 7% skim milk (TBST) for 2 hours at room temperature. […] Horseradish peroxidase-conjugated anti-goat antibody was used as secondary antibody. Signals were visualized by an enhanced chemiluminescence kit (Clonetech, Palo Alto, Calif., USA) followed by exposure to X-ray films.

[3] = system: MMP-1; experiment: Zymography of MMP-1 from pre-treated SW1353 cells; format: cell-based, human; conditions: 0.1 μM, 24 h
Protocol: as §1, §2

[4] = system: MMP-9; experiment: Zymography of MMP-9 from pre-treated SW1353 cells; format: cell-based, human; conditions: 24 h
Protocol: as §1, §2

[5] = system: MMP-1; experiment: Western blot of MMP-1 in PMA- or IL-1β-pre-treated SW1353 cells (Example 6); format: cell-based, human; conditions: 48 h
Protocol: as §3
Western blotting analysis was carried out on both cultured medium and cell lysates, as follows. The cells were washed and lysed in 0.2 mL of lysis buffer (1% NP-40, 50 mM Tris-HCl, pH 7.4, 180 mM NaCl, 1 mM EDTA, 1 mM PMSF, 1 mM NaF, 10 mM Na3VO4) for 30 min at 4° C. After centrifuging at 17500 g for 15 min, the supernatants of cell lysate were also collected. Protein concentration of the samples were measured using the bicinchoninic acid (BCA) protein assay kit according to the manufacturer's protocol (Pierce, Rockford, Ill., USA). Equal amount of protein samples of concentrated conditioned medium (100 μg) or cell lysate supernatants (50 μg) were mixed with an appropriate volume of 4×SDS sampling buffer and separated by 8% SDS-PAGE gel. The protein bands separated in the SDS-PAGE gel were blotted onto a polyvinylidene fluoride (PVDF) membrane. The blotted PVDF membrane was washed twice and blocked in freshly prepared Tris-buffered saline (TBS) containing 0.1% Tween-20 and 7% skim milk (TBST) for 2 hours at room temperature. The PVDF membrane was then incubated with either antibodies against collagen I and III or the housekeeping protein α-tubulin (Santa Cruz Biotechnology, Santa Cruz, Calif.) for 18 hours at 4° C. Horseradish peroxidase-conjugated anti-goat antibody was used as secondary antibody. Signals were visualized by an enhanced chemiluminescence kit (Clonetech, Palo Alto, Calif., USA) followed by exposure to X-ray films.

[6] = system: MMP-13; experiment: Western blot of MMP-13 in pre-treated human chondrocytes (HCHs); format: cell-based; conditions: 48 h
[7] = system: Type II Collagen; experiment: Western blot of Type II Collagen in pre-treated human chondrocytes (HCHs); format: cell-based; conditions: 48 h
[8] = system: HCH cells; experiment: Proline uptake assay; format: cell-based, human; conditions: astragalosides 0.1 μM, 24 h, Ctrl 1.00
Protocol: The proline uptake assay was carried out as described below, generally in accordance with the method disclosed in Biochim Biophys Acta. 1104:283-292, 1992, the contents of which are incorporated by reference. Briefly, HCH cells were seeded into a 24-well plate at a density of 3×10^4 cells per well and cultured for 24 hours. The cells were then treated in the absence (solvent control) or presence of the astragalosides (0.1 μM) or Astragalus membranaceous extracts (1.0 μg/mL) for another 24 hours. The treated cells were then washed once with PBS and incubated in amino acid free medium (AAFM) for another 30 min. The treated cells were then replaced with fresh AAFM containing 50 μg/mL of ascorbate and total of 0.5 mM of L-proline containing 1 μCi [^3H] Proline (American Radiolabelled Chemicals Inc, ARC, St. Louis, Mo., USA). At designated time intervals, the cells were washed with AAFM containing cold proline and then lysed in 200 μL of 2% SDS. Cell lysates were centrifuged at 15000 g for 15 min. Intracellular proline uptaken by the cells was determined by transferring 10 μL of the cell lysate to filter-bottomed UniFilter plates (Perkim-Elmer) and counting. The samples were measured for their protein concentrations using the BCA protein assay kit as described above. The amount of proline accumulated in the cells was calculated and normalized to protein concentration. And cellular uptake rate was expressed as nmole of L-proline per minute per […] of cell protein (nmole/min/μg).

[9] = system: MMP-1; experiment: Western blot of MMP-1 in pre-treated human chondrocytes (HCHs); format: cell-based; conditions: 48 h
[10] = IL-1β-pre-treated SW1353, compounds 0.1 μM
[11] = IL-1β-pre-treated SW1353 cell extract
[12] = IL-1β-pre-treated SW1353 culture medium
[13] = IL-1β-pre-treated SW1353 cell extract, compounds 0.1 μM
[14] = PMA-pre-treated SW1353 cell extract, 0.1 μM
[15] = PMA-pre-treated HCH culture medium, 0.1 μM
[16] = PMA-pre-treated SW1353 culture medium
[17] = IL-1β-pre-treated HCH culture medium, compounds 0.1 μM
[18] = PMA-pre-treated SW1353 culture medium, 0.1 μM
[19] = IL-1β-pre-treated SW1353 culture medium, 0.1 μM

Row | Compound | MMP-2, Zymography, relative to Ctrl 1.00 [1, 10] | MMP-13, Western blot, relative to Ctrl 1.00 [2, 11] | MMP-13, Western blot, relative to Ctrl 1.00 [2, 12] | MMP-1, Zymography, relative to Ctrl 1.00 ([3]; IL-1β-pre-treated SW1353) | MMP-9, Zymography, relative to Ctrl 1.00 [4, 10] | MMP-1, Western blot, relative to Ctrl 1.00 [5, 13] | MMP-1, Western blot, relative to Ctrl 1.00 [5, 14] | MMP-13, Western blot, relative to Ctrl 1.00 [6, 15] | MMP-13, Western blot, relative to Ctrl 1.00 [2, 16] | Type II Collagen, Western blot, relative to Ctrl 1.00 [7, 17] | Type II Collagen, Western blot, relative to Ctrl 1.00 [7, 15] | MMP-1, Western blot, relative to Ctrl 1.00 [9, 17] | MMP-1, Western blot, relative to Ctrl 1.00 [9, 15] | MMP-1, Western blot, relative to Ctrl 1.00 [5, 18] | MMP-2, Zymography, relative to Ctrl 1.00 ([1]; PMA-pre-treated SW1353, 0.1 μM) | MMP-1, Zymography, relative to Ctrl 1.00 ([3]; PMA-pre-treated SW1353) | MMP-9, Zymography, relative to Ctrl 1.00 ([4]; PMA-pre-treated SW1353, 0.1 μM) | MMP-13, Western blot, relative to Ctrl 1.00 [6, 17] | MMP-1, Western blot, relative to Ctrl 1.00 [5, 19] | also measured
1 | CC(=O)O[C@H]1[C@H](O[C@H]2CC[C@]34C[C@]35CC[C@]3(C)[C@@H]([C@@]6(C)CC[C@@H](C(C)(C)O)O6)[C@@H](O)C[C@@]3(C)[C@@H]5C[C@H](O[C@@H]3O[C@H](CO)[C@@H](O)[C@H](O)[C@H]3O)[C@H]4C2(C)C)OC[C@@H](O)[C@@H]1O [AS2, Astragaloside II] | 0.79 | 0.49 | 0.45 | 0.77 | 0.79 | 0.86 | 0.71 |  |  |  |  |  |  |  |  |  |  |  |  | 
2 | CC(C)(O)[C@@H]1CC[C@](C)([C@H]2[C@@H](O)C[C@@]3(C)[C@@H]4C[C@H](O[C@@H]5O[C@H](CO)[C@@H](O)[C@H](O)[C@H]5O)[C@H]5C(C)(C)[C@@H](O[C@@H]6OC[C@@H](O)[C@H](O)[C@H]6O[C@@H]6O[C@H](CO)[C@@H](O)[C@H](O)[C@H]6O)CC[C@@]56C[C@@]46CC[C@]23C)O1 [AS6, Astragaloside VI] |  |  |  |  |  | 0.63 |  | 0.26 | 0.93 | 1.34 | 1.74 | 0.97 | 0.51 | 0.40 |  |  |  |  |  | MMP-13, Western blot, relative to Ctrl 1.00 ([6]; PMA-pre-treated HCH cell extract, 0.1 μM): 0.54; proline uptake, Relative fold [8]: 1.69 fold
3 | Astragaloside I [AS1] | 0.76 | 0.37 |  | 0.86 | 0.79 | 0.66 | 0.86 |  | 1.15 |  |  |  |  | 0.48 | 0.87 | 0.85 | 1.23 |  |  | 
4 | CC(C)(O)[C@@H]1CC[C@](C)([C@H]2[C@@H](O)C[C@@]3(C)[C@@H]4C[C@H](O)[C@H]5C(C)(C)[C@@H](O[C@@H]6OC[C@@H](O)[C@H](O)[C@H]6O[C@@H]6O[C@H](CO)[C@@H](O)[C@H](O)[C@H]6O)CC[C@@]56C[C@@]46CC[C@]23C)O1 [AS3, Astragaloside III] |  | 0.86 |  |  |  | 0.39 |  |  |  | 1.03 |  |  |  |  | 0.90 | 0.89 | 0.87 | 0.75 | 0.09 | 
5 | C[C@@H]1C[C@H]2[C@@H]3CCC4=CC(=O)C=C[C@]4(C)[C@@]3(F)[C@@H](O)C[C@]2(C)[C@@]1(O)C(=O)CO [Dex, Dexamethasone, reference compound] | 0.42 | 0.64 | 0.29 | 0.80 | 0.58 | 0.26 | 0.38 | 0.74 | 0.46 | 1.20 | 1.20 | 0.28 | 0.28 | 0.60 | 0.99 | 0.87 | 0.92 | 0.74 | 0.38 | MMP-13, Western blot, relative to Ctrl 1.00 ([2]; PMA-pre-treated SW1353 cell extract): 0.48
